Test results as given in patent publication US20160024204A1, “METHODS FOR PRODUCING ANTIBODIES” (BRISTOL-MYERS SQUIBB COMPANY, priority 2013, published 2016).

Tested on: P. pastoris
Test: Effects of hydroxyurea on cell growth and antibody productivity in P. pastoris fermentation (Run 01MAY11)
Details: 2.6-2.8 g/L hydroxyurea; for WB Titer (anti-IL-6 antibody): age 90 h, lots T5, T6 and T10

**Q.** Which results are given for NC(=O)NO [Hydroxyurea]?
**A.** WCW reached and maintained by hydroxyurea treatment lots (control lots ~400 g/Kg) (after peak cell density at 30-40 hours, FIG. 8): ~450 g/kg; WB Titer (anti-IL-6 antibody): 75.0 ± 2.7 Normalized; WB Titer (anti-IL-6 antibody) (listed as hydroxyurea): 75 Normalized
